Measured values: US20260217661A1, “TREATMENTS FOR PAIN” (Sevenless Therapeutics Limited, priority 2023, published 2026)

Target: T1, KRAS WT/SOS1 (Homo sapiens, UniProt Q07889)
T1 sequence (Q07889 1-1333): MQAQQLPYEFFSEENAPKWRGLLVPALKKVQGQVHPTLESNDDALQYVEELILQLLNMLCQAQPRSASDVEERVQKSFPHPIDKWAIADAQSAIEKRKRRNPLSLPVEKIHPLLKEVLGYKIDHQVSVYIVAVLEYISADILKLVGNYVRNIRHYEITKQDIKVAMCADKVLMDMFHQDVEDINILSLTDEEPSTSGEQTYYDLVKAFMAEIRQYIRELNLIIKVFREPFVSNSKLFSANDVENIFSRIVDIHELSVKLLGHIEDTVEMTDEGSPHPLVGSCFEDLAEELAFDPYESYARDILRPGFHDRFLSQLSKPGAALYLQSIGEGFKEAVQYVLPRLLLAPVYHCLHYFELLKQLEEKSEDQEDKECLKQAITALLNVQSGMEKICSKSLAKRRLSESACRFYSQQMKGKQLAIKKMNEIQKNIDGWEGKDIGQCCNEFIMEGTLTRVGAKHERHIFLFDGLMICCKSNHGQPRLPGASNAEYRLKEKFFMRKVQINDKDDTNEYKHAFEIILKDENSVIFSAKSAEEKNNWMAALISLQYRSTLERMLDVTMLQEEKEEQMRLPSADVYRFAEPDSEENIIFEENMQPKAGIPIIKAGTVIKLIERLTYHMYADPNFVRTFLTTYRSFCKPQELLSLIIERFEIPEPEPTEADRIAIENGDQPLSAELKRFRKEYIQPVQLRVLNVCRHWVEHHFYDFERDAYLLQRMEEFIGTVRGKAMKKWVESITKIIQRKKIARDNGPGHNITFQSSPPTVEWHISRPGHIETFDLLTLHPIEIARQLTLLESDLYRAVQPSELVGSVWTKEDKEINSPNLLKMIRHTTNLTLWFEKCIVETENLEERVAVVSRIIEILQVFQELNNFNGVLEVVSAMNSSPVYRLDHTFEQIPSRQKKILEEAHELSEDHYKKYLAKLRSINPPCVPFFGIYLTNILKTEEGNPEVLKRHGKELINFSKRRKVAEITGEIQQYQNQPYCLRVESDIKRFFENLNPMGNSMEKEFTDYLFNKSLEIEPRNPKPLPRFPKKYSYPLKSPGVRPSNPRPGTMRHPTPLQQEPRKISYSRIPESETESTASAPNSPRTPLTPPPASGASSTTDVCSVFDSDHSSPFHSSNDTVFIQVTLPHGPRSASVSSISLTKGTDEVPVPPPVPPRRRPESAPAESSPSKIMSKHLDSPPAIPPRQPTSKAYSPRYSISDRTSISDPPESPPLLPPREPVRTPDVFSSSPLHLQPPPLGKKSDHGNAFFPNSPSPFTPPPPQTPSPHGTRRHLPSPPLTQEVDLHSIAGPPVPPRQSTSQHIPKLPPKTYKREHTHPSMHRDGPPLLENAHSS
Test: HTRF KRAS WT/SOS1 PPI kit (Cisbio) screen for SOS1 inhibitors
Format: binding
Settings: HTRF KRAS WT/SOS1 PPI assay, 10-point dilution series starting at 10 μM, 60 minutes incubation
Method: Compounds were screened using an HTRF KRAS WT/SOS1 PPI kit provided by Cis bio, according to the manufacturer's instructions, with the modifications described below. All reagents were allowed to equilibrate to room temperature and diluted to working stock in Binding Domain Detection buffer (BDD buffer). Stock solutions were prepared by adding 1 part Tag1-KRAS WT/GTP to 1 part Tag2-SOS1 and 1 part BDD. Separately, 1 part Anti-Tag1 XL665 antibody premix was added to Anti-Tag2 Tb cryptate antibody premix. BI-3406 (Selleck Chemicals) was used as a standard, solubilised to 10 mM in DMSO. Test compounds were also solubilised to 10 mM in DMSO. […] Per well, 6 uL of Tag1-KRAS WT/GTP premix, 4 ul Tag2-SOS1 premix and 10 μl of Anti-Tag1 XL665 and Anti-Tag2 Tb cryptate antibodies were then added using a E1-ClipTip™ Electronic Adjustable Multichannel Equalizer Pipette. After the final addition, the plate was covered and placed in the benchtop incubator set at 22° C. The reaction was incubated for 60 minutes at room temperature, prior to reading using a Pherastar FSX plate reader.

In the case of COc1cc2nncc(N[C@H](C)c3cccc(C(F)F)c3F)c2cc1N1CC2CC(C1)O2 [Example-8, 6-(6-oxa-3-azabicyclo [3.1.1]heptan-3-yl)-N—((R)-1-(3-(difluoromethyl)-2-fluorophenyl)ethyl)-7-methoxycinnolin-4-amine], the IC50 is reported as < 100 nM.
